Assay results reported in ChEMBL document CHEMBL1138582, “5-Aminopyrimidin-2-ylnitriles as cathepsin K inhibitors” (Bioorg Med Chem Lett, 2009).

Assays:
Cathepsin K = molecular target: T1, Cathepsin K (Homo sapiens, UniProt P43235); assay: Inhibition of cathepsin K
T1 sequence (P43235 whole entry): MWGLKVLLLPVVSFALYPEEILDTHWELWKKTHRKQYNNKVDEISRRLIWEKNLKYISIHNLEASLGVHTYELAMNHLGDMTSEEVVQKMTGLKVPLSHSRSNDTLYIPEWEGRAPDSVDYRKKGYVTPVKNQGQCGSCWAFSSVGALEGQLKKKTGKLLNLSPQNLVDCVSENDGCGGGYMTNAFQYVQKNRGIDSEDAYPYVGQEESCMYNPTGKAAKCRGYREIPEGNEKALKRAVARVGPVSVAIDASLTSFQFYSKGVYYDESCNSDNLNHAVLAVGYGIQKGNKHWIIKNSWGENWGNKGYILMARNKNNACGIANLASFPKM

[1] = Electrophilicity, glutathione reactivity assessed as half life; assay type: physicochemical; parameters: unit not given here
Cathepsin S = Cathepsin S (Homo sapiens, UniProt P25774); assay: Inhibition of cathepsin S
Sequence of Cathepsin S (P25774 whole entry): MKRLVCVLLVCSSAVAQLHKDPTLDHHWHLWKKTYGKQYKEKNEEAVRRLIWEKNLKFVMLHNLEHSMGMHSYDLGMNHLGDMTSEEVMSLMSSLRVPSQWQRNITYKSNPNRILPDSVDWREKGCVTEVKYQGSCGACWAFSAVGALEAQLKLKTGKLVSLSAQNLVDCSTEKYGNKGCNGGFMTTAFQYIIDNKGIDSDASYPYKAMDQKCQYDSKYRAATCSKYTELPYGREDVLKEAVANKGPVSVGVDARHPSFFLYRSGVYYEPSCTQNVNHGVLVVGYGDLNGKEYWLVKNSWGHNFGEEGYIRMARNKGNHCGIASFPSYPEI

Cathepsin B = Cathepsin B (Homo sapiens, UniProt P07858); assay: Inhibition of cathepsin B
Procathepsin L = Procathepsin L (Homo sapiens, UniProt P07711); assay: Inhibition of cathepsin L
Sequence of Procathepsin L (P07711 whole entry): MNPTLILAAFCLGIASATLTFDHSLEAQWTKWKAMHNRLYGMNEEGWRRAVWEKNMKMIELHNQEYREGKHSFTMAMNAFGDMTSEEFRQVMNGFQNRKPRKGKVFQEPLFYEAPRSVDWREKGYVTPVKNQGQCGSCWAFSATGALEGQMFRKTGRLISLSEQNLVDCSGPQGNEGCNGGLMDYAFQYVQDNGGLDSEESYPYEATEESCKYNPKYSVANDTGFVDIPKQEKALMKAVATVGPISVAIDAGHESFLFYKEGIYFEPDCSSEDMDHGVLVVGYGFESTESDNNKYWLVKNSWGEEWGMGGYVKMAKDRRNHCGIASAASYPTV

IC50 (Cathepsin K) [nM]	logt1/2 [1]	SMILES	further results
17	–	CC(C)(C)CNc1nc(C#N)nc(N2CCOCC2)c1N	IC50 (Cathepsin S): 910 nM; IC50 (Cathepsin B): > 10000 nM; IC50 (Procathepsin L): > 10000 nM
24	–	COCCNc1nc(C#N)nc(NCC(C)C)c1N	–
18	–	CC(C)CNc1nc(C#N)nc(N2CCOCC2)c1N	IC50 (Cathepsin S): 560 nM; IC50 (Procathepsin L): 2000 nM
62	–	CC(C)CNc1nc(C#N)nc(NCc2nnn[nH]2)c1N	–
6	–	CC(C)CNc1nc(C#N)nc(N2CCNCC2)c1N	IC50 (Cathepsin S): 890 nM; IC50 (Cathepsin B): 6100 nM; IC50 (Procathepsin L): 1400 nM
32	–	CC(C)CNc1nc(C#N)nc(N2CC(O)C2)c1N	–
9	–	CC(=O)N1CCN(c2nc(C#N)nc(NCC(C)C)c2N)CC1	–
–	3.38	CNc1nc(C#N)nc(N(C)C)c1N	–
14	–	CC(C)CNc1nc(C#N)nc(NC2CCS(=O)(=O)C2)c1N (configuration not stated)	–

Second part, the molecule before the results:

SMILES	IC50 (Cathepsin K) [nM]	logt1/2 [1]	further results
N#Cc1nc(NC2CCCC2)c(N)c(N2CCOCC2)n1	13	–	–
COc1c(Nc2ccccc2)nc(C#N)nc1N(C)C	–	2.31	–
N#Cc1nc(NC2CCCCC2)c(N)c(N2CCOCC2)n1	23	–	–
CN(C)c1nc(C#N)nc(Oc2ccccc2)c1N	–	2.98	–
N#Cc1nc(NC2CCOC2)c(N)c(N2CCOCC2)n1 (configuration not stated)	340	–	–
CN(C)c1nc(C#N)nc(Nc2ccccc2)n1	–	2.07	–
CN(C)c1cc(N(C)C)nc(C#N)n1	–	2.56	–
N#Cc1nc(N2CCCC2)c(N)c(N2CCOCC2)n1	60	–	–
CC(C)Nc1nc(C#N)nc(N2CCOCC2)c1N	560	–	–
CNc1nc(C#N)nc(N(C)C)c1[N+](=O)[O-]	–	< 2.08	–
N#Cc1nc(Nc2ccccc2)c(N)c(N2CCOCC2)n1	110	–	–
CN(C)c1nc(C#N)nc(N(C)C)c1N	–	3.26	–
CN(C)c1nc(C#N)nc(Nc2ccccc2)c1N	–	3	–
CN(C)c1cc(Nc2ccccc2)nc(C#N)n1	–	2.12	–
N#Cc1nc(N2CCCCC2)c(N)c(N2CCOCC2)n1	22	–	–
CNc1cc(N(C)C)nc(C#N)n1	–	2.67	–
CNc1c(Nc2ccccc2)nc(C#N)nc1N(C)C	–	2.91	–
CNc1nc(C#N)nc(N(C)C)c1Br	–	2.19	–
CCC(C)Nc1nc(C#N)nc(N2CCOCC2)c1N (configuration not stated)	300	–	–
N#Cc1nc(NC2CC3CCC2C3)c(N)c(N2CCOCC2)n1 (configuration not stated)	2	–	–
